Experimental findings from patent US20220204510A1, “2,3-DIHYDRO-1H-PYRROLIZINE-7-FORMAMIDE DERIVATIVE AND APPLICATION THEREOF” (CHIA TAI TIANQING PHARMACEUTICAL GROUP CO., LTD., priority 2018, published 2022) are described below.

One experiment relates to HBV. Kind of experiment: qPCR test in the HBV in vitro test (HBV DNA in HepG2.2.15 cells). The note with it: Hepatitis B virus, 192 h, HBV DNA in HepG2.2.15 culture medium, day 8, read-out: Half maximal inhibitory concentration (EC50) of HBV. In kind it is cell-based. The procedure:
To evaluate the inhibitory effect of the compound on HBV by detecting content of HBV DNA in HepG2.2.15 cells in a real-time qPCR test, with EC50 of the compound as an indicator.
3.1. HepG2.2.15 cells (4×10^4 cells/well) were inoculated into a 96-well plate and cultured at 37° C. in 5% CO2 overnight. 3.2. On day 2, the compound was 3-fold diluted in gradient for a total of 8 dilution gradients. The compound at different concentrations was added into the culture wells in duplicate. The final concentration of DMSO in the culture medium was 1%. 1 μM GLS4 was used as a 100% inhibition control (the structure of GLS4 disclosed in WO2008154817A1 is as follows:
1% DMSO was used as a 0% inhibition control. 3.3. On day 5, the culture medium was replaced with a fresh culture medium containing the compound. 3.4. On day 8, the culture medium in the culture wells was collected, and the high-throughput DNA purification kit (Qiagen-51162) was used to extract DNA. For specific steps, refer to the product manual.
3.6. Each well of the 96-well PCR plate was added with 15 μL of the reaction mixture, and then with 10 μL of sample DNA or HBV DNA standard. 3.7. The reaction conditions for PCR: heating at 95° C. for 10 min, degeneration at 95° C. for 15 s, and extension at 60° C. for 1 min, with a total of 40 cycles.
3.8.1. Calculation of the inhibition percentage: % Inh.=[1−(DNA copy number in the sample−DNA copy number in 1 μM GLS4)/(DNA copy number in the DMSO control−DNA copy number in 1 μM GLS4)]×100. 3.8.2. Calculation of EC50: half maximal inhibitory concentration (EC50) of the compound for HBV was calculated using GraphPad Prism software. 3.8.3.

A further experiment addresses T1, CYP1A2 (Homo sapiens, UniProt P05177).
T1 construct: from tissue; host or cells: human liver microsomes
T1 sequence (P05177 1-516): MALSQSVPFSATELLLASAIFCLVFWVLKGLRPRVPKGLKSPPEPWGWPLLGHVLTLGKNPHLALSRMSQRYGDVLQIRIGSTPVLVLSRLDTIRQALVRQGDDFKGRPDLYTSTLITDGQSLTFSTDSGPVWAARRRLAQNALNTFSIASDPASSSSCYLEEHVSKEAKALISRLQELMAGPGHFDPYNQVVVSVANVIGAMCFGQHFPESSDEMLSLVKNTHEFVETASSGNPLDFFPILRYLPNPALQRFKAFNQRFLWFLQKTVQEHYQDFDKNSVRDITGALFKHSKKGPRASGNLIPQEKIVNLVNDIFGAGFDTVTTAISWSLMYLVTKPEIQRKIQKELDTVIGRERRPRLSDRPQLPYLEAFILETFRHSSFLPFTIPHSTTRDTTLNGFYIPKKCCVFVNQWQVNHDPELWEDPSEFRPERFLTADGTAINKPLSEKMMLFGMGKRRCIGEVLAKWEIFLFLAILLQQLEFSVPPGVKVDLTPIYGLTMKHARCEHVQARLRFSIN
Kind of experiment: Inhibition of human liver microsomal cytochrome P450 isoenzymes. It counts as in vitro ADME. To be noted: human liver microsomes. The procedure: (§1) Experimental objective: to determine the inhibitory effect of the test compound on the activity of human liver microsomal cytochrome P450 isoenzymes (CYP1A2, CYP2C9, CYP2C19, CYP2D6 and CYP3A4). Experimental procedures: first, the test compound (10 mM) was diluted in gradient to prepare working solutions (100× final concentration) at concentrations of: 5, 1.5, 0.5, 0.15, 0.05, 0.015, and 0.005 mM, and working solutions of positive inhibitors for P450 isoenzymes (CYP1A2, CYP2C9, CYP2C19, CYP2D6, and CYP3A4) and the specific substrate mixtures thereof (5 in 1) were prepared simultaneously; human liver microsomes frozen in a−80° C. refrigerator were thawed on ice, and after all thawed, the human liver microsomes were diluted with PB to prepare a working solution at a specific concentration (0.253 mg/mL); 20 μL of the substrate mixture (20 μL of PB was added into the blank well) and 158 μL of the working solution of human liver microsomes were added into the reaction plate which was then placed on ice for use; then 2 μL of the test compound at each concentration (N=1) and a specific inhibitor (N=2) were added into the corresponding well, and the group without the inhibitor (test compound or the positive inhibitor) was added with a corresponding organic solvent as a control sample (the test compound control sample was 1:1 DMSO:MeOH; the positive control sample was 1:9 DMSO:MeOH); after pre-incubation under a 37° C. water bath for 10 min, 20 μL of a coenzyme factor (NADPH) solution was added into the reaction plate and incubated under a 37° C. water bath for 10 min, 400 μL of a cold acetonitrile solution (the internal standard was 200 ng/mL Tolbutamide and Labetalol) was added to terminate the reaction, and the reaction plate was placed on a shaker and shaken for 10 min; after centrifugation at 4,000 rpm for 20 min, 200 μL of the supernatant was collected and added to 100 μL of water to dilute the sample, and, finally, the plate was sealed, oscillated shaken evenly, and subjected to LC/MS/MS detection.
(Microsomes from liver hold many membrane-bound enzymes, among them those of drug oxidation.)

A further experiment addresses T2, CYP2C19 (Homo sapiens, UniProt P33261).
T2 construct: from tissue; host or cells: human liver microsomes
The description is as above. In kind it is in vitro ADME. To be noted: human liver microsomes. The procedure: as §1

Another experiment has as its target T3, CYP2C9 (Homo sapiens, UniProt P11712).
T3 construct: from tissue; host or cells: human liver microsomes
The experiment is described as above. In kind it is in vitro ADME. To be noted: human liver microsomes. As for the experimental part:
as §1

A further experiment has as its target T4, CYP2D6 (Homo sapiens, UniProt P10635).
T4 construct: from tissue; host or cells: human liver microsomes
The experiment is described as above. In kind it is in vitro ADME. The note with it: human liver microsomes. The procedure: as §1

The target of another experiment is T5, CYP3A4 (Homo sapiens, UniProt P08684).
T5 construct: from tissue; host or cells: human liver microsomes
The experiment is described as above. In kind it is in vitro ADME. The note with it: human liver microsomes. The procedure: as §1

A word on the IC50: it is the point on the concentration scale where inhibition reaches its midpoint.

T3 sequence (P11712 whole entry): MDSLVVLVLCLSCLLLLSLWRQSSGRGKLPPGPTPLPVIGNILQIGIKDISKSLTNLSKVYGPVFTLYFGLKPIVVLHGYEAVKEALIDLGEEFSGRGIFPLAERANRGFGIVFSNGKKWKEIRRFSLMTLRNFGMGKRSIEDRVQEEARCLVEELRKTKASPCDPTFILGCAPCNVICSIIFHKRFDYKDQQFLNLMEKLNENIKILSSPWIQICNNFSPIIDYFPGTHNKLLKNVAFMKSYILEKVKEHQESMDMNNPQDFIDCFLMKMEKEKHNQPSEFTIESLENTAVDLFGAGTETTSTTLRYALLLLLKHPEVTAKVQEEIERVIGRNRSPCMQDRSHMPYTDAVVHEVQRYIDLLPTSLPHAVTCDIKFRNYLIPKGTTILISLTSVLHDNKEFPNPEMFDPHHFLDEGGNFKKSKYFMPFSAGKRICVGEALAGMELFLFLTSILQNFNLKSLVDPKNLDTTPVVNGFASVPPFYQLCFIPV
T2 sequence (P33261 whole entry): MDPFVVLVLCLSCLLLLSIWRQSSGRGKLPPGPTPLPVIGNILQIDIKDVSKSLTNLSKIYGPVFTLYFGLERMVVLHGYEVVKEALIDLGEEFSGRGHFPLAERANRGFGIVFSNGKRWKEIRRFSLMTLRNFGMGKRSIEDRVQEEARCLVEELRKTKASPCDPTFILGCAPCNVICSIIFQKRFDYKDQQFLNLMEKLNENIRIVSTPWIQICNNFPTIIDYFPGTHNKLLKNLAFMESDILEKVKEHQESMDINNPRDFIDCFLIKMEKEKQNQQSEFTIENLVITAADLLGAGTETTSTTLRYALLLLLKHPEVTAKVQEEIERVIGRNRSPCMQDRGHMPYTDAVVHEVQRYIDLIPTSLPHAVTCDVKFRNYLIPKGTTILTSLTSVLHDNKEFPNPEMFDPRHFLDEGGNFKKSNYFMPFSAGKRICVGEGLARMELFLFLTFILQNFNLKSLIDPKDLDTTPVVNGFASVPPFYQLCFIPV
T5 sequence (P08684 whole entry): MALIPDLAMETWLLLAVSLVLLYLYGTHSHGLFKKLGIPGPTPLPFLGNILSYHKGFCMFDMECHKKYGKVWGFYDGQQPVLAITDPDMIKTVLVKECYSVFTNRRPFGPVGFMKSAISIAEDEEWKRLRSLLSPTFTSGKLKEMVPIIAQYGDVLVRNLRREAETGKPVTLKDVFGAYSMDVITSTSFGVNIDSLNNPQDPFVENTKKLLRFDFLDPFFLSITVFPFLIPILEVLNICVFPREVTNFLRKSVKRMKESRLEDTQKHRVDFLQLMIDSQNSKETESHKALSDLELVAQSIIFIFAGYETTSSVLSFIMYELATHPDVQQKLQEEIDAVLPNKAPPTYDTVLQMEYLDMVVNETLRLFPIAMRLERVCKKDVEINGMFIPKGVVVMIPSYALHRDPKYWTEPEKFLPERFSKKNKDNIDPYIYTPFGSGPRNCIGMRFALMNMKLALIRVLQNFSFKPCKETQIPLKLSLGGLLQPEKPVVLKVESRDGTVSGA
T4 sequence (P10635 whole entry): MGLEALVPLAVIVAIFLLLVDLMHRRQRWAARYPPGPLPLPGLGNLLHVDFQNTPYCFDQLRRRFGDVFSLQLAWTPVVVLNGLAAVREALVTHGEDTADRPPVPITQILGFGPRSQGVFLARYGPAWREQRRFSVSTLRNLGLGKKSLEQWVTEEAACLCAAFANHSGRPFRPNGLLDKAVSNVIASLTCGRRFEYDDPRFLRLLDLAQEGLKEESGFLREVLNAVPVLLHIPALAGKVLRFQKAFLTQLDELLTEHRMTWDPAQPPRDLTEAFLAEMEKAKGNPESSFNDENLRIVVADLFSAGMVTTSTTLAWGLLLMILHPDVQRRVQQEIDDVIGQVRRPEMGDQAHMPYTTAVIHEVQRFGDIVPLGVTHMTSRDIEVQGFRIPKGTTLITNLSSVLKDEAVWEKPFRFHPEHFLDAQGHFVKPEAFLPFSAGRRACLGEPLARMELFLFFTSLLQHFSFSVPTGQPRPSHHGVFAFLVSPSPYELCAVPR

With `CC1(NC(=O)C(=O)c2cc(C(=O)Nc3ccc(F)c(F)c3)c3n2CCC3)CCOCC1` [Compound 1], the EC50 in the experiment with HBV came to 35 nM.
For the molecule `CC1(NC(=O)C(=O)c2c(Cl)c(C(=O)Nc3ccc(F)c(F)c3)c3n2CCC3)CCOCC1` [Compound 2], the EC50 with HBV was 3 nM. Besides, the IC50 against CYP1A2, at CYP2C19, against CYP2C9, against CYP2D6 and at CYP3A4 was over 50000 nM each time.
As to `Cc1c(C(=O)Nc2ccc(F)c(F)c2)c2n(c1C(=O)C(=O)NC1(C)CCOCC1)CCC2` [Compound 3], the EC50 with HBV stood at 5 nM.
Consider `CC1(NC(=O)C(=O)c2c(Cl)c(C(=O)Nc3ccc(F)c(F)c3)c3n2CCC3)CCN(CC(=O)O)CC1` [Compound 4], for which the EC50 in the experiment with HBV stood at 580 nM.
For the molecule `CC1(NC(=O)C(=O)c2c(Cl)c(C(=O)Nc3ccc(F)c(C#N)c3)c3n2CCC3)CCOCC1` [Compound 5], the EC50 in the experiment with HBV was 7 nM.
`CC1(NC(=O)C(=O)c2cc(C(=O)Nc3ccc(F)c(F)c3)c3n2CCCC3)CCOCC1` [Compound 6]: in the experiment on HBV, the EC50 is 110 nM.
Take `CC1(NC(=O)C(=O)c2c(Cl)c(C(=O)Nc3ccnc(Cl)c3)c3n2CCC3)CCOCC1` [Compound 7]: in the experiment on HBV, the EC50 is 30 nM.
For the molecule `CC1(NC(=O)C(=O)c2c(Br)c(C(=O)Nc3ccc(F)c(F)c3)c3n2CCC3)CCOCC1` [Compound 8], in the experiment with HBV, the EC50 amounted to 9 nM.
Turning to `CC1(NC(=O)C(=O)c2c(C(F)(F)F)c(C(=O)Nc3ccc(F)c(F)c3)c3n2CCC3)CCOCC1` [Compound 9], in the experiment with HBV, the EC50 was found to be 41 nM.
For the molecule `CC1(NC(=O)C(=O)c2c(Cl)c(C(=O)Nc3cc(F)c(F)c(F)c3)c3n2CCC3)CCOCC1` [Compound 10], in the experiment with HBV, the EC50 amounted to 2 nM.
For `COCC1(NC(=O)C(=O)c2c(Cl)c(C(=O)Nc3ccc(F)c(F)c3)c3n2CCC3)CCOCC1` [Compound 11], the EC50 in the experiment on HBV came to 4 nM.
For the molecule `N#CC1(NC(=O)C(=O)c2c(Cl)c(C(=O)Nc3ccc(F)c(F)c3)c3n2CCC3)CCOCC1` [Compound 12], in the experiment on HBV, the EC50 was found to be 5 nM.
Take `CC1(NC(=O)C(=O)c2c(Cl)c(C(=O)Nc3ccc(F)c(F)c3)c3n2CCC3)CCC(CC(=O)O)CC1` (stereo not shown) [Compound 13]: the EC50 in the experiment with HBV is 19 nM.
Take `C[C@@H](NC(=O)C(=O)c1c(Cl)c(C(=O)Nc2ccnc(Cl)c2)c2n1CCC2)C(F)(F)F` [Compound 14]: the EC50 with HBV amounted to 70 nM.
For `O=C(NC12CCC(C(=O)O)(CC1)CC2)C(=O)c1c(Cl)c(C(=O)Nc2ccc(F)c(F)c2)c2n1CCC2` [Compound 15], the EC50 in the experiment on HBV worked out at 37 nM.
For the molecule `CC(C)(CCC(=O)O)NC(=O)C(=O)c1c(Cl)c(C(=O)Nc2ccc(F)c(F)c2)c2n1CCC2` [Compound 16], in the experiment with HBV, the EC50 was determined as 41 nM.
For the molecule `C[C@]1(NC(=O)C(=O)c2c(Cl)c(C(=O)Nc3ccc(F)c(F)c3)c3n2CCC3)CC[C@H](C(=O)O)CC1` [Compound 19], the EC50 in the experiment with HBV came out at 20 nM.
For `C[C@]1(NC(=O)C(=O)c2c(Cl)c(C(=O)Nc3ccc(F)c(F)c3)c3n2CCC3)CC[C@@H](C(=O)O)CC1` [Compound 20], the EC50 with HBV was determined as 11 nM.
Still for that read-out and setting: next, `C[C@]1(NC(=O)C(=O)c2c(Cl)c(C(=O)Nc3ccc(F)c(F)c3)c3n2CCC3)CC[C@@H](CCC(=O)O)CC1` [Compound 21]: 3 nM.
On the same count and under the same terms, next, `C[C@]1(NC(=O)C(=O)c2c(Cl)c(C(=O)Nc3ccc(F)c(F)c3)c3n2CCC3)CC[C@H](CCC(=O)O)CC1` [Compound 22]: 14 nM; `CC(C)(CCCC(=O)O)NC(=O)C(=O)c1c(Cl)c(C(=O)Nc2ccc(F)c(F)c2)c2n1CCC2` [Compound 23]: 27 nM.
With `N#CC1(NC(=O)C(=O)c2c(Cl)c(C(=O)Nc3ccc(F)c(F)c3)c3n2CCC3)CCC(CC(=O)O)CC1` (stereo not shown) [Compound 24], the EC50 in the experiment with HBV is 299 nM.
As for `CC(C)(C)OC(=O)C[C@H]1CC[C@](C)(NC(=O)C(=O)c2c(Cl)c(C(=O)Nc3cc(F)c(F)c(F)c3)c3n2CCC3)CC1` [Compound 25-3], the EC50 with HBV was found to be 4 nM.
As for `N#CC1(NC(=O)C(=O)c2c(Cl)c(C(=O)Nc3cc(F)c(F)c(F)c3)c3n2CCC3)CCC(CC(=O)O)CC1` (stereo not shown) [Compound 26], the EC50 in the experiment on HBV was 174 nM.
In the case of `CC(C)(CCCCC(=O)O)NC(=O)C(=O)c1c(Cl)c(C(=O)Nc2cc(F)c(F)c(F)c2)c2n1CCC2` [Compound 27], in the experiment with HBV, the EC50 turned out to be 12 nM.
Still for that read-out and setting: as for `O=C(O)CC1CCC(NC(=O)C(=O)c2c(Cl)c(C(=O)Nc3cc(F)c(F)c(F)c3)c3n2CCC3)(C(F)(F)F)CC1` (stereo not shown) [Compound 28], the figure is 2 nM; as for `O=C(O)C[C@H]1CC[C@](NC(=O)C(=O)c2c(Cl)c(C(=O)Nc3cc(F)c(F)c(F)c3)c3n2CCC3)(C(F)(F)F)CC1` [Compound 29], 3 nM; as for `O=C(O)C[C@H]1CC[C@@](NC(=O)C(=O)c2c(Cl)c(C(=O)Nc3cc(F)c(F)c(F)c3)c3n2CCC3)(C(F)(F)F)CC1` [Compound 30], 1 nM.
In the case of `COC(=O)C[C@H]1CC[C@](C)(NC(=O)C(=O)c2c(Cl)c(C(=O)Nc3cc(F)c(F)c(F)c3)c3n2CCC3)CC1` [Compound 31], in the experiment on HBV, the EC50 amounted to 5 nM.
